{
  "source": "ChEMBL document CHEMBL3879901",
  "about": "“Substituted isoquinolin-1(2H)-ones, and methods of use thereof” (2012)",
  "key": {"[1]": {"target": "PI3-kinase p110-alpha/p85-alpha (Homo sapiens, UniProt P42336)", "sequence (P27986 whole entry)": "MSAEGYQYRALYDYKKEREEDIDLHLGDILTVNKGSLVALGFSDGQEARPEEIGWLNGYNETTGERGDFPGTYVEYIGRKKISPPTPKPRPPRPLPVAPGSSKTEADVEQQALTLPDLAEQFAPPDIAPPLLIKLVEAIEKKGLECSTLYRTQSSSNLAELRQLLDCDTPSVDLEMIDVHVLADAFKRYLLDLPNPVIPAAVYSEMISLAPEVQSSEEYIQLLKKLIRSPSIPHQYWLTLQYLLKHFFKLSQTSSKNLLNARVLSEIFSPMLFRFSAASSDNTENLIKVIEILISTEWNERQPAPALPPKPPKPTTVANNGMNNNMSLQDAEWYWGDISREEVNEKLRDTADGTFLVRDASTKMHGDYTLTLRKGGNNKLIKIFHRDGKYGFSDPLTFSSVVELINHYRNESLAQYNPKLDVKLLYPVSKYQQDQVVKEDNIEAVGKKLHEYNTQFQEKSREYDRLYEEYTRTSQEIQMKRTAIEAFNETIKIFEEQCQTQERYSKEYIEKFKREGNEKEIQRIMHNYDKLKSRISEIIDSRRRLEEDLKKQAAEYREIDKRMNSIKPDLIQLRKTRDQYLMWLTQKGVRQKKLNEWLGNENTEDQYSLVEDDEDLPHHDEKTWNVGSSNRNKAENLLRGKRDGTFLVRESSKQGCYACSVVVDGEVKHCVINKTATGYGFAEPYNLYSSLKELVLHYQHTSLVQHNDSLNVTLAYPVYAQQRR", "sequence (P42336 whole entry)": "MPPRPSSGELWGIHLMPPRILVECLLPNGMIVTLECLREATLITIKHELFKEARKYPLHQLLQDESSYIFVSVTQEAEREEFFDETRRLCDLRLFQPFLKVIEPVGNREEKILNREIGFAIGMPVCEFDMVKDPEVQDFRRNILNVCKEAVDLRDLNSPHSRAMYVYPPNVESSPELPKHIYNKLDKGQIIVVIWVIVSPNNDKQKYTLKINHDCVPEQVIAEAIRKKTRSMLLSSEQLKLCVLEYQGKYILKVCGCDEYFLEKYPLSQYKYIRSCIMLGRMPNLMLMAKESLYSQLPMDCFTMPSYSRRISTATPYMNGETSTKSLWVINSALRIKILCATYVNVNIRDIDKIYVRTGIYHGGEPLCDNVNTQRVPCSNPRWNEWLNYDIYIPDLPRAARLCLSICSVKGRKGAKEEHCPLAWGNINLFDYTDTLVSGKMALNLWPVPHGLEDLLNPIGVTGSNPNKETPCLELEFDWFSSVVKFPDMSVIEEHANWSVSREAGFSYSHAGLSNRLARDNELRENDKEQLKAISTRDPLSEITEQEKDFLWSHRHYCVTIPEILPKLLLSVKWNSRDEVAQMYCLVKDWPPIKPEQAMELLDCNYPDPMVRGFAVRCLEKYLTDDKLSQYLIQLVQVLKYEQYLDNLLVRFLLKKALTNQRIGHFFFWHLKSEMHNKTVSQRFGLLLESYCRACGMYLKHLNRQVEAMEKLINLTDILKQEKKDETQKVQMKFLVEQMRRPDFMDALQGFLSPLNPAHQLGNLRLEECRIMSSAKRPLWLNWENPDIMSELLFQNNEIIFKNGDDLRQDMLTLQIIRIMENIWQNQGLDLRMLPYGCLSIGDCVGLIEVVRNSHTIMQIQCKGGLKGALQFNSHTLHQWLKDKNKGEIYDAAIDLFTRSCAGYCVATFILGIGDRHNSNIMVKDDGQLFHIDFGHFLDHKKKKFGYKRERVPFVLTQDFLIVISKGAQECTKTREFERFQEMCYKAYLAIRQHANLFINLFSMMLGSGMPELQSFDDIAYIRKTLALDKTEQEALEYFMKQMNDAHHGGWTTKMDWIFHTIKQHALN", "experiment": "Inhibition of N-terminal His6-tagged recombinant full-length human p110alpha/untagged recombinant full length human p85alpha expressed in baculovirus infected Sf21 cells using phosphatidylinositol as substrate in presence of gamma-32P-ATP after 5 mins by thin layer chromatographic method"}, "[2]": {"experiment": "Antiproliferative activity against Balb/c mouse splenic B cells preincubated for 30 mins followed by LPS or F(ab')2 donkey anti-mouse IgM and recombinant mouse IL4 stimulation measured after 72 hrs by Alamar Blue reduction assay", "type": "functional, cell-based"}, "Rattus norvegicus [3]": {"system": "Rattus norvegicus", "experiment": "Antiarthritic activity in type 2 collagen-induced Lewis rat arthritis model assessed as reduction in ankle diameter at 10 to 60 mg/kg, po administered every 12 hrs for 16 days measured on day 9 of compound dosing to day 17 of post last dose relative to vehicle-treated control", "type": "functional, organism-based"}, "Rattus norvegicus [4]": {"system": "Rattus norvegicus", "experiment": "Antiarthritic activity in type 2 collagen-induced Lewis rat arthritis model assessed as reduction in ankle inflammation at 60 mg/kg, po administered every 12 hrs for 16 days measured on day 17 of post last dose by toluidine blue staining-based assay", "type": "functional, organism-based"}, "Rattus norvegicus [5]": {"system": "Rattus norvegicus", "experiment": "Antiarthritic activity in type 2 collagen-induced Lewis rat arthritis model assessed as reduction in ankle pannus at 60 mg/kg, po administered every 12 hrs for 16 days measured on day 17 of post last dose by toluidine blue staining-based assay", "type": "functional, organism-based"}, "Rattus norvegicus [6]": {"system": "Rattus norvegicus", "experiment": "Antiarthritic activity in type 2 collagen-induced Lewis rat arthritis model assessed as reduction in cartilage damage in ankle at 60 mg/kg, po administered every 12 hrs for 16 days measured on day 17 of post last dose by toluidine blue staining-based assay", "type": "functional, organism-based"}, "Rattus norvegicus [7]": {"system": "Rattus norvegicus", "experiment": "Antiarthritic activity in type 2 collagen-induced Lewis rat arthritis model assessed as reduction in bone resorption in ankle at 60 mg/kg, po administered every 12 hrs for 16 days measured on day 17 of post last dose by toluidine blue staining-based assay", "type": "functional, organism-based"}, "Rattus norvegicus [8]": {"system": "Rattus norvegicus", "experiment": "Antiarthritic activity in type 2 collagen-induced po dosed Lewis rat arthritis model assessed as reduction in knee inflammation administered every 12 hrs for 16 days measured on day 17 of post last dose by toluidine blue staining-based assay", "type": "functional, organism-based"}, "Rattus norvegicus [9]": {"system": "Rattus norvegicus", "experiment": "Antiarthritic activity in type 2 collagen-induced po dosed Lewis rat arthritis model assessed as reduction in cartilage damage in knee administered every 12 hrs for 16 days measured on day 17 of post last dose by toluidine blue staining-based assay", "type": "functional, organism-based"}, "Rattus norvegicus [10]": {"system": "Rattus norvegicus", "experiment": "Antiarthritic activity in type 2 collagen-induced po dosed Lewis rat arthritis model assessed as reduction in bone resorption in knee administered every 12 hrs for 16 days measured on day 17 of post last dose by toluidine blue staining-based assay", "type": "functional, organism-based"}, "Rattus norvegicus [11]": {"system": "Rattus norvegicus", "experiment": "Antiarthritic activity in type 2 collagen-induced Lewis rat arthritis model assessed as reduction in serum anti-type 2 collagen levels at 10 mg/kg, po administered every 12 hrs for 16 days measured on day 17 of post last dose by ELISA relative to control", "type": "functional", "parameters": "scale not given: the % may be the effect or the level left"}, "Rattus norvegicus [12]": {"system": "Rattus norvegicus", "experiment": "Antiarthritic activity in type 2 collagen-induced Lewis rat arthritis model assessed as reduction in serum anti-type 2 collagen levels at 60 mg/kg, po administered every 12 hrs for 16 days measured on day 17 of post last dose by ELISA relative to control", "type": "functional", "parameters": "scale not given: the % may be the effect or the level left"}, "Mus musculus [13]": {"system": "Mus musculus", "experiment": "Reduction of TNP-Ficoll-induced T cell independent B cell activation in BDA-1 mouse assessed as decrease in IgG3 levels in serum at 1 mg/kg, po bid administered for 7 days by ELISA relative to control", "type": "functional"}, "Rattus norvegicus [14]": {"system": "Rattus norvegicus", "experiment": "Antiarthritic activity in type 2 collagen-induced Lewis rat arthritis model assessed as reduction in ankle diameter at 10 to 60 mg/kg, po bid administered for 6 days measured every day of compound dosing and day 7 of post last dose", "type": "functional, organism-based"}, "Homo sapiens": {"species": "Homo sapiens", "experiment": "Inhibition of allergen-induced activation of basophilic granulocytes in human whole blood preincubated for 20 mins followed by allergen induction measured after 20 mins using sub micromolar range of compound by basotest assay", "type": "functional, tissue-based"}, "Rattus norvegicus [15]": {"system": "Rattus norvegicus", "experiment": "Antiarthritic activity in collagen-induced Lewis rat arthritis model assessed as reduction in ankle joint swelling administered for 6 days post arthritis induction measured every day during compound dosing and day 7 of post last dose in presence of mTOR inhibitor rapamycin", "type": "functional"}, "[16]": {"target": "T1, Phosphatidylinositol 4,5-bisphosphate 3-kinase catalytic subunit delta isoform (Mus musculus) (UniProt O35904)", "T1 sequence (whole entry)": "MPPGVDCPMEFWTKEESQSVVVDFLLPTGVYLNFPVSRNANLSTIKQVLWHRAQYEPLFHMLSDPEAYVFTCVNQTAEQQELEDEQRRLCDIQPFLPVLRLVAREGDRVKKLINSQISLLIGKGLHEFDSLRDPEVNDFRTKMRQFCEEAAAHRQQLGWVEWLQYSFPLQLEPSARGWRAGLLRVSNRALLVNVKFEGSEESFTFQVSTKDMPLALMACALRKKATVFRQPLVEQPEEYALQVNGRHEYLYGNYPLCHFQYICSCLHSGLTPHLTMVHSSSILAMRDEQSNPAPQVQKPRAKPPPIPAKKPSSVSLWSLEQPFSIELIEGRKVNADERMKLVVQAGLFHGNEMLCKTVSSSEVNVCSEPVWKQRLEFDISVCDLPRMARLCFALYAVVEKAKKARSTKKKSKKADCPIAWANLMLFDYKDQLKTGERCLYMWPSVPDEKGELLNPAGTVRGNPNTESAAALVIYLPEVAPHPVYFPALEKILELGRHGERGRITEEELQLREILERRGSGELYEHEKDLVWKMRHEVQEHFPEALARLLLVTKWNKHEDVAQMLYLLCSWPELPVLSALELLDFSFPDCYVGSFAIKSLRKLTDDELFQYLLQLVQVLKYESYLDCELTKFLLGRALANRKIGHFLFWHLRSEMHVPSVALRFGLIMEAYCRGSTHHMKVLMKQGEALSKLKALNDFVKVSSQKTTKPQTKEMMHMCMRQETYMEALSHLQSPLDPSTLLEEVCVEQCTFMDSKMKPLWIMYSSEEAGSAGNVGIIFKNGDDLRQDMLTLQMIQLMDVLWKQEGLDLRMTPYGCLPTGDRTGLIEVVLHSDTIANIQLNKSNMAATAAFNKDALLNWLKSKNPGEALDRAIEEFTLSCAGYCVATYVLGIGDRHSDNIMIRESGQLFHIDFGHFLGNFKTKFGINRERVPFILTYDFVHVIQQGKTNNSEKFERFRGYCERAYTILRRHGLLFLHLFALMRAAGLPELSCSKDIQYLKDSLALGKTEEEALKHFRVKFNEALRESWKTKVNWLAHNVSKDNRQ", "experiment": "Inhibition of PI3Kdelta in LPS or anti-CD40/IL4-stimulated mouse B cells assessed as decrease in IgG response in presence of mTOR inhibitor rapamycin relative to vehicle-treated control", "type": "cell-based"}, "[17]": {"target": "T1, Phosphatidylinositol 4,5-bisphosphate 3-kinase catalytic subunit delta isoform (Mus musculus)", "experiment": "Inhibition of PI3Kdelta in LPS or anti-CD40/IL4-stimulated mouse B cells assessed as decrease in IgE response in presence of mTOR inhibitor rapamycin", "type": "cell-based"}, "Mus musculus [18]": {"species": "Mus musculus", "experiment": "Inhibition of TNP-Ficoll or TNP-KHL-stimulated IgG3 response in mouse in presence of mTOR inhibitor rapamycin by ELISA relative to vehicle-treated control", "type": "functional"}, "Mus musculus [19]": {"species": "Mus musculus", "experiment": "Inhibition of TNP-Ficoll or TNP-KHL-stimulated IgE response in mouse in presence of mTOR inhibitor rapamycin by ELISA", "type": "functional"}},
  "note": "The source made the active and inactive calls. The calls are words filed in the database; no cut-off is given here.",
  "data": [
    {"smiles": "CC(=O)Nc1nc2ccc(-c3nn(Cc4cc5cccc(C)c5c(=O)n4-c4ccccc4C)c4ncnc(N)c34)cc2s1", "values": [
      {"measurement": "IC50", "setting": "[1]", "result": "1 to 10", "unit": "µM"},
      {"measurement": "EC50", "setting": "[2]", "result": "< 0.1", "unit": "µM"},
      {"measurement": "Activity", "setting": "Rattus norvegicus [3]", "result": "Active"},
      {"measurement": "Activity", "setting": "Rattus norvegicus [4]", "result": "Active"},
      {"measurement": "Activity", "setting": "Rattus norvegicus [5]", "result": "Active"},
      {"measurement": "Activity", "setting": "Rattus norvegicus [6]", "result": "Active"},
      {"measurement": "Activity", "setting": "Rattus norvegicus [7]", "result": "Active"},
      {"measurement": "Activity", "setting": "Rattus norvegicus [8]", "result": "Dose-dependent effect"},
      {"measurement": "Activity", "setting": "Rattus norvegicus [9]", "result": "Dose-dependent effect"},
      {"measurement": "Activity", "setting": "Rattus norvegicus [10]", "result": "Dose-dependent effect"},
      {"measurement": "Activity", "setting": "Rattus norvegicus [11]", "result": 75, "unit": "%"},
      {"measurement": "Activity", "setting": "Rattus norvegicus [12]", "result": 86, "unit": "%"},
      {"measurement": "fold change (FC)", "setting": "Mus musculus [13]", "result": 0.6},
      {"measurement": "Activity", "setting": "Rattus norvegicus [14]", "result": "Active"},
      {"measurement": "inhibition", "setting": "Homo sapiens", "result": "Active"},
      {"measurement": "Activity", "setting": "Rattus norvegicus [15]", "result": "Active"},
      {"measurement": "inhibition", "setting": "[16]", "result": "Active"},
      {"measurement": "inhibition", "setting": "[17]", "result": "Active"},
      {"measurement": "inhibition", "setting": "Mus musculus [18]", "result": "Active"},
      {"measurement": "inhibition", "setting": "Mus musculus [19]", "result": "Active"}
    ]}
  ]
}
